Assay [1] concerns Barrett's stem cells (GFP) and esophageal squamous stem cells (RFP). As to the kind of experiment: 3D air-liquid interface (ALI) co-culture of Barrett's and esophageal stem cells. In kind it is cell-based, human. Conditions: in the presence of Ponatinib. On the procedure:
A 3D culture model was generated to mimic Barrett's Esophagus in vitro. The esophageal squamous stem cells and Barrett's stem cells were co-cultured in the transwell insert. Following the creation of air-liquid interface, it was observed that the BE islands located among well-differentiated squamous epithelium that well recapitulated the histology of human BE in the patient. Given the similarity of this artificial model and human pathology, the hits were tested in this system to further validate them. […] The esophageal squamous stem cells were labeled with red fluorescent protein (RFP) while Barrett's stem cells were labeled with green fluorescent protein (GFP). Without the treatment, it was observed that a mixture of GFP and RFP labeled cells in culture.

Assay [2] has as its system BE, dysplasia and cancer stem cells. As to the kind of experiment: 3D (ALI) culture of patient-matched BE, dysplasia and cancer stem cells. The class given is cell-based, human. The settings on record: combined with Ponatinib. The text has this:
FIG. 5B. Left, Scanned images of top view of BE, dysplasia and cancer stem cells (green) generated ALI structures in the presence of absence of drug combinations.

The test system of assay [3] is Barrett's, dysplasia or EAC stem cells. As to the kind of experiment: Co-culture of esophageal stem cells with Barrett's, dysplasia or EAC stem cells. The class given is cell-based, human. Conditions: together with 1 μM Ponatinib. On the procedure: FIG. 6. Patient-matched BE, dysplasia and cancer stem cells (Krt7+, Green) were mixed with Krt5+ (red) ESO cells and co-cultured for five days and then treated with seven selected drugs together with 1 μM Ponatinib.
BE has been known to be the precursor of the dysplastic and cancerous lesions of EAC. […] Moreover, PCA analysis of Barrett's stem cells derived from 12 patients together with dysplasia, cancer and Esophageal squamous stem cells confirmed that the stem cells of dysplasia and cancer shared very similar gene expression with Barrett's stem cells (FIGS. 4A & B). […] The effects of the eight drug hits in combination with Ponatinib were tested in the cell culture of co-seeding esophageal stem cells and Barrett's, dysplasia or EAC stem cells. […] Given these three entities always co-exist in patients with EAC, our strategies of eradicating all of them could help to eliminate the chance of recurrence of EAC patients drastically.

Assay [4] concerns Barrett's stem cells and esophageal squamous stem cells xenograft. As to the kind of experiment: Mouse xenograft of co-injected esophageal squamous and GFP labeled Barrett's stem cells. In kind it is in vivo, mice. The text has this: The effect of these chemicals on BE in a xenograft model was further examined. The esophageal squamous stem cells and GFP labeled Barrett's stem cells were mixed and co-injected into the immunodeficient mice. […] Two weeks following the treatment, the xenografts were collected and examined through histology analysis and clonogenic analysis.

In another assay the target is T1, JMJD2A (KDM4A) (Homo sapiens, UniProt O75164).
T1 sequence (O75164 1-1064): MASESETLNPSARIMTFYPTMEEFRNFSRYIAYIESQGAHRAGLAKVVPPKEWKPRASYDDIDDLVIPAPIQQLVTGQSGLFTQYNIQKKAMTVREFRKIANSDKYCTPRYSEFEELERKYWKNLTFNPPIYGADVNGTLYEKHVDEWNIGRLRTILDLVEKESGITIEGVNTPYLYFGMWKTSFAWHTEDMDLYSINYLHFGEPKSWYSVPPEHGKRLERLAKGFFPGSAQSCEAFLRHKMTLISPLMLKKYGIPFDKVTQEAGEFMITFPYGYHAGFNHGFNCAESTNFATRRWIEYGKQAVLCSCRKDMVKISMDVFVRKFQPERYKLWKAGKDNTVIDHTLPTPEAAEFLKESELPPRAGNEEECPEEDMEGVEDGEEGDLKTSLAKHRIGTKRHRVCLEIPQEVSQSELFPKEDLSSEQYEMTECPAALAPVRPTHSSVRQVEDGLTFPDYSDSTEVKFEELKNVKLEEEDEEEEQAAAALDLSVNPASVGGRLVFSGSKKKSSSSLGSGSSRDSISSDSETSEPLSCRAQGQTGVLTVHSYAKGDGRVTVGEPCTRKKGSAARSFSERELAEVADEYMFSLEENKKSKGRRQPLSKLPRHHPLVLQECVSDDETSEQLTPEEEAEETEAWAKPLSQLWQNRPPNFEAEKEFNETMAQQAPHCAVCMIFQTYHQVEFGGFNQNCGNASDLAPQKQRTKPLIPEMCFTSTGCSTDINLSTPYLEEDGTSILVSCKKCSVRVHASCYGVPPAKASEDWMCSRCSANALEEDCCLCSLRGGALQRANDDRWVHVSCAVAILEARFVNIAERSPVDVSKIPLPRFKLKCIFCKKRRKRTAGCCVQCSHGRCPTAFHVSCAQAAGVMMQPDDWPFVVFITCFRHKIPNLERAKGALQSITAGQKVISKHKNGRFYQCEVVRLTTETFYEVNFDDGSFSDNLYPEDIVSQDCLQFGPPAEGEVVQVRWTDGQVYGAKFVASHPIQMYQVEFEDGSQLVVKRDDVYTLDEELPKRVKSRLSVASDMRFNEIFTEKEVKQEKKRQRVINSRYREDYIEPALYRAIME
The settings on record: demethylase activity in vitro; cited from earlier work.

For assay [5], the system named is aggressive breast cancer model. The settings on record: in vivo; cited from earlier work.
Assay [6] relates to dysplasia and cancer stem cells. As to the kind of experiment: Mice xenografted with dysplasia and cancer stem cells. Conditions: with Ponatinib. The class given is in vivo. The text has this:
FIG. 5C. Schematic of in vivo validation of drug combinations in mice xenografted with dysplasia and cancer stem cells. Following the treatment, the xenografts were processed for histological analysis or clonogenic assays to detect the existence of stem cells.

Broadly, the IC50 is the concentration that gives 50% inhibition. `Clc1ccc(N/N=C(\c2ccccc2)c2ccccn2)nc1` [JIB04]: the “cross sections of the ALI structures” value in assay [1] is “intact esophageal squamous epithelium without any existence of Barrett's epithelium”. The “GFP labeled Barrett's stem cells in 3D ALI co-culture” value in assay [1] (eight Barrett's stem cell lines) is given as “disappearance”. Besides, the “eradication of BE, dysplasia and cancer stem cells in 3D (ALI) culture” value in assay [2] was “eradicate”. Also, the “growth of BE, dysplasia and cancer stem cells in co-culture with ESO cells” value in assay [3] is “most effective”. Further, in assay [4] (NSG mice, with Ponatinib), the “BE stem cells in treated structures (histological analysis)” value was “not detected” and the “Krt5+ ESO structures in treated samples” value is listed as “visibly more robust”. Besides, the “clonogenic Barrett's stem cells from xenografts” value in assay [4] (combination with Ponatinib, clonogenic analysis) was “lack of clonogenic Barrett's stem cells”. Moreover, the “Barrett's structures in xenografts (histology)” value in assay [4] (combination with Ponatinib, intraperitoneally, two weeks following the treatment) is on record as “total loss”. For the same molecule, the IC50 at JMJD2A (KDM4A) is roughly 440 nM. Besides, in assay [5], the “tumor burden and survival of mice” value was “reduces tumor burden and prolongs survival”. Moreover, in assay [6], the “Dysplastic structures (Krt7+/Ki67+) in xenografts” value is listed as “diminished”; the “eradication of precancerous, dysplastic and cancerous stem cells in mouse xenograft models” value is reported as “eradicate”; the “stem cells cloned from treated dysplastic structures (rhodamine staining)” value was “not cloned”.

(Values after patent US20220202792A1, “METHODS AND COMPOSITIONS FOR TREATING CHRONIC INFLAMMATORY INJURY, METAPLASIA, DYSPLASIA AND CANCERS OF EPITHELIAL TISSUES” (University of Houston System, priority 2019, published 2022).)
